Measurements from patent US9173394B2, “Active agent combinations having insecticidal and acaricidal properties” (BAYER INTELLECTUAL PROPERTY GMBH, priority 2007, dated 2015).
Read-outs that look alike come from different tables or passages of the source.

Tests used:
Myzus persicae = Myzus persicae test (Example A): spray treatment of infested cabbage leaves; type: in vivo; conditions: for Destruction in % after 1 d: 0.16 g/ha
From the text: (§1) Solvent: 78 parts by weight of acetone

Tetranychus urticae = Tetranychus urticae test (OP-resistant/spray treatment) (Example D): infested bean leaf discs; type: in vivo
Experimental: as §1
Bean leaf discs (Phaseolus vulgaris) which are infested with all stages of the red spider mite (Tetranychus urticae) are sprayed with an active substance preparation of the desired concentration.
After the desired period of time, the effect is determined in %.

Phaedon cochleariae = Phaedon cochleariae larvae test (Example B): sprayed cabbage leaves populated with mustard beetle larvae; conditions: for pest or weed control at 4 g/ha: read-out: Destruction in % after 6 d, 4 g/ha
Spodoptera frugiperda = Spodoptera frugiperda larvae test (Example C): sprayed cabbage leaves populated with army worm larvae; type: in vivo; conditions: for Destruction in % after 6 d: Table C second series
From the text: as §1

[1] = Myzus persicae, 24 h, read-out: Destruction in % after 1 d
[2] = single active substance, after 1 d
[3] = Myzus persicae, 144 h, read-out: Destruction in % after 6 d
[4] = Phaedon cochleariae, in Brassica oleracea, 144 h, read-out: Destruction in % after 6 d, 0.8 g/ha, after 6 d, Table B second series
[5] = Phaedon cochleariae, in Brassica oleracea, 144 h, read-out: Destruction in % after 6 d, 100 g/ha, after 6 d, Table B fourth series
[6] = Phaedon cochleariae, in Brassica oleracea, 144 h, read-out: Destruction in % after 6 d, 100 g/ha, after 6 d, Table B second series (r19-r78)
[7] = Phaedon cochleariae, in Brassica oleracea, 144 h, read-out: Destruction in % after 6 d
[8] = Myzus persicae, 144 h, single active substance, 0.8 g/ha, after 6 d, read-out: Destruction in % after 6 d
[9] = Phaedon cochleariae, in Brassica oleracea, 144 h, after 6 d, Table B second series

Cc1nn(C)c(Oc2ccccc2)c1C=NOCc1ccc(C(=O)OC(C)(C)C)cc1 [Fenpyroximate, fenpyroximate]
pest or weed control at 4 g/ha (Myzus persicae; [1]): 0%
Destruction in % after 6 d (Tetranychus urticae; 4 g/ha): 0%

CCOCn1c(-c2ccc(Cl)cc2)c(C#N)c(Br)c1C(F)(F)F [Chlorfenapyr, chlorfenapyr]
pest or weed control at 4 g/ha (Myzus persicae; [1]): 0%
Destruction in % after 2 d (Phaedon cochleariae; 100 g/ha, Table B third series): 67%
Destruction in % after 2 d (Spodoptera frugiperda; 20 g/ha, Table C third series): 33%

abamectin
Destruction in % after 1 d (Myzus persicae; [2]): 0%
Destruction in % after 2 d (Phaedon cochleariae; 4 g/ha, Table B third series): 67%
Destruction in % after 2 d (Tetranychus urticae; 0.0064 g/ha): 50%

spinosad
Destruction in % after 6 d (Myzus persicae; single active substance, 0.8 g/ha, after 6 d): 0%
Destruction in % after 6 d (Phaedon cochleariae; 0.8 g/ha, after 6 d, Table B fourth series): 50%
Destruction in % after 2 d (Spodoptera frugiperda; 0.8 g/ha, Table C third series): 0%
Destruction in % after 2 d (Tetranychus urticae; 4 g/ha): 20%

O=C1C=C(N(Cc2ccc(Cl)nc2)CC(F)F)CO1 [Compound (I-5), 4-{[(6-chloropyrid-3-yl)methyl](2,2-difluoroethyl)amino}furan-2(5H)-one]
pest or weed control at 0.8 g/ha (Myzus persicae; [1]): 10%
pest or weed control at 4 g/ha (Myzus persicae; [1]): 70%
pest or weed control at 0.8 g/ha (Myzus persicae; [3]): 10%
Destruction in % after 2 d (Phaedon cochleariae; 0.8 g/ha, Table B first series): 0%
Destruction in % after 6 d (Phaedon cochleariae; 20 g/ha, after 6 d, Table B fourth series): 0%
Destruction in % after 2 d (Phaedon cochleariae; 100 g/ha, Table B third series): 50%
pest or weed control at 0.16 g/ha (Phaedon cochleariae; Phaedon cochleariae, in Brassica oleracea, 144 h, read-out: Destruction in % after 6 d, 0.16 g/ha, after 6 d, Table B second series): 0%
pest or weed control at 0.8 g/ha (Phaedon cochleariae; [4]): 0%
pest or weed control at 100 g/ha (Phaedon cochleariae; [5]): 33%
pest or weed control at 100 g/ha (Phaedon cochleariae; [6]): 0%
Destruction in % after 6 d (Spodoptera frugiperda; 0.16 g/ha): 0%
Destruction in % after 6 d (Spodoptera frugiperda; 0.8 g/ha): 0%
Destruction in % after 2 d (Spodoptera frugiperda; 4 g/ha, Table C third series): 0%
Destruction in % after 2 d (Spodoptera frugiperda; 20 g/ha, Table C third series): 0%
Destruction in % after 6 d (Spodoptera frugiperda; 20 g/ha): 0%
Destruction in % after 2 d (Tetranychus urticae; 0.16 g/ha): 0%
Destruction in % after 2 d (Tetranychus urticae; 4 g/ha): 0%
Destruction in % after 6 d (Tetranychus urticae; 4 g/ha): 0%

CSC(=O)O/C(=C(/C#N)c1ccc(Cl)cc1)c1ccccc1C(F)(F)F [IKA 2002, O-{(E)-2-(4-chlorophenyl)-2-cyano-1-[2-(trifluoromethyl)phenyl]ethenyl}S-methyl thiocarbonate]
pest or weed control at 20 g/ha (Phaedon cochleariae; [7]): 0%
pest or weed control at 100 g/ha (Phaedon cochleariae; [7]): 0%

O=C1C=C(N(CCF)Cc2ccc(Cl)nc2)CO1 [Compound (I-4), 4-{[(6-chloropyrid-3-yl)methyl](2-fluoroethyl)amino}furan-2(5H)-one]
pest or weed control at 0.8 g/ha (Myzus persicae; Myzus persicae, 24 h, single active substance, 0.8 g/ha, after 1 d, read-out: Destruction in % after 1 d): 0%
pest or weed control at 4 g/ha (Myzus persicae; Myzus persicae, 24 h, single active substance, 4 g/ha, after 1 d, read-out: Destruction in % after 1 d): 30%
pest or weed control at 0.8 g/ha (Myzus persicae; [8]): 0%
pest or weed control at 4 g/ha (Myzus persicae; Myzus persicae, 144 h, single active substance, 4 g/ha, after 6 d, read-out: Destruction in % after 6 d): 60%
Destruction in % after 6 d (Phaedon cochleariae; 20 g/ha, after 6 d, Table B second series): 0%
Destruction in % after 2 d (Phaedon cochleariae; 100 g/ha, Table B third series): 33%
pest or weed control at 0.8 g/ha (Phaedon cochleariae; [7]): 0%
pest or weed control at 20 g/ha (Phaedon cochleariae; [7]): 0%
pest or weed control at 100 g/ha (Phaedon cochleariae; [7]): 33%
Destruction in % after 6 d (Spodoptera frugiperda; 0.16 g/ha): 0%
Destruction in % after 6 d (Spodoptera frugiperda; 0.8 g/ha): 0%
Destruction in % after 2 d (Spodoptera frugiperda; 4 g/ha, Table C third series): 0%
Destruction in % after 2 d (Spodoptera frugiperda; 20 g/ha, Table C third series): 0%
Destruction in % after 6 d (Spodoptera frugiperda; 100 g/ha): 0%
Destruction in % after 2 d (Tetranychus urticae; 0.8 g/ha): 0%
Destruction in % after 2 d (Tetranychus urticae; 4 g/ha): 0%
Destruction in % after 6 d (Tetranychus urticae; 4 g/ha): 0%
Destruction in % after 2 d (Tetranychus urticae; 20 g/ha): 0%

CC(C)c1cc(Oc2ccccc2)cc(C(C)C)c1NC(=S)NC(C)(C)C [Diafenthiuron, diafenthiuron]
pest or weed control at 4 g/ha (Myzus persicae; [1]): 0%
Destruction in % after 2 d (Tetranychus urticae; 100 g/ha): 0%
Destruction in % after 6 d (Tetranychus urticae; 100 g/ha): 0%

N#CCNC(=O)c1cnccc1C(F)(F)F [Flonicamid, flonicamid]
pest or weed control at 0.8 g/ha (Myzus persicae; [1]): 0%
pest or weed control at 100 g/ha (Phaedon cochleariae; [6]): 0%

N#Cc1ccc(CC(=NNC(=O)Nc2ccc(OC(F)(F)F)cc2)c2cccc(C(F)(F)F)c2)cc1 (mixture of isomers) [Metaflumizone, 2-[2-(4-cyanophenyl)-1-[3-(trifluoromethyl)-phenyl]ethylidene]-N-[4-(trifluoromethoxy)phenyl]hydrazinecarboxamide]
pest or weed control at 0.8 g/ha (Myzus persicae; [8]): 0%
pest or weed control at 100 g/ha (Phaedon cochleariae; [7]): 0%
Destruction in % after 6 d (Spodoptera frugiperda; 20 g/ha): 0%
Destruction in % after 6 d (Spodoptera frugiperda; 100 g/ha): 83%

CC(C)(C)c1ccc(CSc2cnn(C(C)(C)C)c(=O)c2Cl)cc1 [pyridaben]
pest or weed control at 100 g/ha (Phaedon cochleariae; [5]): 0%
Destruction in % after 2 d (Tetranychus urticae; 20 g/ha): 50%

CC[S+]([O-])c1c(C#N)nn(-c2c(Cl)cc(C(F)(F)F)cc2Cl)c1N (stereo not drawn) [Ethiprole, ethiprole]
pest or weed control at 4 g/ha (Myzus persicae; [1]): 0%
pest or weed control at 4 g/ha (Myzus persicae; [3]): 0%
pest or weed control at 0.8 g/ha (Phaedon cochleariae; [4]): 33%
pest or weed control at 4 g/ha (Phaedon cochleariae; [9]): 67%

CNC(=O)c1cc(Cl)cc(C)c1NC(=O)c1cc(Br)nn1-c1ncccc1Cl [Rynaxapyr, 3-bromo-N-{4-chloro-2-methyl-6-[(methylamino)carbonyl]phenyl}-1-(3-chloropyridin-2-yl)-1H-pyrazole-5-carboxamide]
pest or weed control at 0.8 g/ha (Myzus persicae; [1]): 0%
pest or weed control at 0.032 g/ha (Myzus persicae; [3]): 0%
pest or weed control at 4 g/ha (Phaedon cochleariae; [9]): 50%
Destruction in % after 6 d (Spodoptera frugiperda; 0.16 g/ha): 33%

Nc1nc(N)nc(NC2CC2)n1 [Cyromazine, cyromazine]
pest or weed control at 4 g/ha (Myzus persicae; [1]): 0%
pest or weed control at 20 g/ha (Phaedon cochleariae; Phaedon cochleariae, in Brassica oleracea, 144 h, read-out: Destruction in % after 6 d, 20 g/ha, after 6 d, Table B fourth series (r118-r181)): 0%
pest or weed control at 100 g/ha (Phaedon cochleariae; [5]): 0%

milbemectin
Destruction in % after 1 d (Myzus persicae; [2]): 0%
Destruction in % after 6 d (Tetranychus urticae; 0.16 g/ha): 0%

N#Cc1nn(-c2c(Cl)cc(C(F)(F)F)cc2Cl)c(N)c1[S+]([O-])C(F)(F)F (stereo not drawn) [Fipronil, fipronil]
pest or weed control at 20 g/ha (Myzus persicae; [1]): 30%
pest or weed control at 0.8 g/ha (Myzus persicae; [3]): 0%
Destruction in % after 6 d (Spodoptera frugiperda; 0.8 g/ha): 17%

COC(=O)N(C(=O)N1COC2(C(=O)OC)Cc3cc(Cl)ccc3C2=N1)c1ccc(OC(F)(F)F)cc1 (stereo not drawn) [Indoxacarb, indoxacarb]
pest or weed control at 20 g/ha (Myzus persicae; [1]): 0%
pest or weed control at 0.8 g/ha (Phaedon cochleariae; [4]): 0%
pest or weed control at 4 g/ha (Phaedon cochleariae; [9]): 33%
Destruction in % after 6 d (Spodoptera frugiperda; 0.8 g/ha): 33%
Destruction in % after 6 d (Spodoptera frugiperda; 4 g/ha): 83%

COCCOC(=O)C(C#N)(C(=O)c1ccccc1C(F)(F)F)c1ccc(C(C)(C)C)cc1 (stereo not drawn) [Cyflumetofen, 2-methoxyethyl alpha-cyano-alpha-[4-(1,1,dimethylethyl)phenyl]-beta-oxo-2-(trifluoromethyl)benzenepropanoate]
pest or weed control at 4 g/ha (Myzus persicae; [1]): 0%
pest or weed control at 100 g/ha (Phaedon cochleariae; [5]): 0%
Destruction in % after 6 d (Tetranychus urticae; 4 g/ha): 70%

CCc1nn(C)c(C(=O)NCc2ccc(C(C)(C)C)cc2)c1Cl [tebufenpyrad]
Destruction in % after 2 d (Phaedon cochleariae; 100 g/ha, Table B third series): 50%
Destruction in % after 2 d (Tetranychus urticae; 4 g/ha): 10%

emamectin-benzoate
Destruction in % after 1 d (Myzus persicae; [2]): 0%
Destruction in % after 2 d (Phaedon cochleariae; 0.032 g/ha, Table B first series): 0%
Destruction in % after 2 d (Spodoptera frugiperda; 0.8 g/ha, Table C first series): 50%

CC1=NNC(=O)N(/N=C/c2cccnc2)C1 [Pymetrozine, pymetrozine]
pest or weed control at 0.16 g/ha (Myzus persicae; [1]): 0%
pest or weed control at 0.8 g/ha (Myzus persicae; [3]): 50%
pest or weed control at 100 g/ha (Phaedon cochleariae; [5]): 0%

Cc1ccc(/N=C/N(C)/C=N/c2ccc(C)cc2C)c(C)c1 [Amitraz, amitraz]
pest or weed control at 4 g/ha (Myzus persicae; [1]): 0%
pest or weed control at 100 g/ha (Phaedon cochleariae; [5]): 0%

Cc1nn(C)c(/C(OC(=O)C(C)(C)C)=C(\C#N)c2ccc(C(C)(C)C)cc2)c1C [Cyenopyrafen, (1E)-2-cyano-2-[4-(1,1-dimethylethyl)phenyl]-1-(1,3,4-trimethyl-1H-pyrazol-5-yl)ethenyl 2,2-dimethylpropanoate]
pest or weed control at 4 g/ha (Myzus persicae; [1]): 0%
pest or weed control at 100 g/ha (Phaedon cochleariae; [5]): 0%
Destruction in % after 2 d (Tetranychus urticae; 0.16 g/ha): 0%
Destruction in % after 2 d (Tetranychus urticae; 0.8 g/ha): 50%
